Where two headings read alike, the source gives them in different places.
Legend:
Test in all cases: Kinase binding screen
Settings in all cases: read-out: Percent Control at 100 nM Compound Concentration
[1] = target: IGFIR (Homo sapiens (Human), UniProt P08069)
[2] = target: DDR2 (Homo sapiens (Human), UniProt Q16832)
[3] = target: BRAF(V600E) (Homo sapiens (Human), UniProt P15056, V600E)
[4] = target: BMPR1A (Homo sapiens (Human), UniProt P36894)
[5] = target: JNK1 (Homo sapiens (Human), UniProt P45983)
Sequence of JNK1 (P45983 whole entry): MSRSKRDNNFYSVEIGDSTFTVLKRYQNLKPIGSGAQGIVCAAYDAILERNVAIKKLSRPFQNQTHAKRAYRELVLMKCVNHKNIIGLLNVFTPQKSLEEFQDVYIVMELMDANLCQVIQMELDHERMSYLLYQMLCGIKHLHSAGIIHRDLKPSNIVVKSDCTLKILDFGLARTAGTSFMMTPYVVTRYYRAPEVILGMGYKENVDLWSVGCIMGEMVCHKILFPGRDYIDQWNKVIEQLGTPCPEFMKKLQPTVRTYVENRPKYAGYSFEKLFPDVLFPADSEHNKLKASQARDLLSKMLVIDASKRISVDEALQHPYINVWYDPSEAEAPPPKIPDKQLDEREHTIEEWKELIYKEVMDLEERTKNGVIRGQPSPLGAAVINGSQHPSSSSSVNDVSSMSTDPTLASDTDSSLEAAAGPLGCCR

[6] = target: PIK3CG (Homo sapiens (Human), UniProt P48736)
[7] = target: CSNK2A2 (Homo sapiens (Human), UniProt P19784)
[8] = target: DAPK1 (Homo sapiens (Human), UniProt P53355)
[9] = target: ABL1(Q252H)-phosphorylated (Homo sapiens (Human), UniProt P00519, Q252H)
[10] = target: FLT3(R834Q) (Homo sapiens (Human), UniProt P36888, R834Q)
[11] = target: MY03A (Homo sapiens (Human), UniProt Q8NEV4)
[12] = target: STK33 (Homo sapiens (Human), UniProt Q9BYT3)
Sequence of STK33 (Q9BYT3 whole entry): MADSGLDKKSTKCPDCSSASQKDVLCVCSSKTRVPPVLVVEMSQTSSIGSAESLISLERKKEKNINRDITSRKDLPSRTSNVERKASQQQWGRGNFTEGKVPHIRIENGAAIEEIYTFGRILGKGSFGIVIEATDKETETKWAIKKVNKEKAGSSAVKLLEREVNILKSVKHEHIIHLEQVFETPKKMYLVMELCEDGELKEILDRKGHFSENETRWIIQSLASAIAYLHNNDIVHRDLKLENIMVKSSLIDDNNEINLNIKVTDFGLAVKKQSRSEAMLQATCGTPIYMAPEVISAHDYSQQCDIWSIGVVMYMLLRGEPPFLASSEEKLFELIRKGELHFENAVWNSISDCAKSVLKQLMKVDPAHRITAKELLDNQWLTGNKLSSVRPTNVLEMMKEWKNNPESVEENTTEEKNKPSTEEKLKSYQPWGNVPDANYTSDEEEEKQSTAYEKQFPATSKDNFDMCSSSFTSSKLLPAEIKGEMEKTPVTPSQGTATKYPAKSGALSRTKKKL

[13] = target: JAK1(JH1domain-catalytic) (Homo sapiens (Human), UniProt P23458)
[14] = target: p38-gamma (Homo sapiens (Human), UniProt P53778)
Sequence of p38-gamma (P53778 whole entry): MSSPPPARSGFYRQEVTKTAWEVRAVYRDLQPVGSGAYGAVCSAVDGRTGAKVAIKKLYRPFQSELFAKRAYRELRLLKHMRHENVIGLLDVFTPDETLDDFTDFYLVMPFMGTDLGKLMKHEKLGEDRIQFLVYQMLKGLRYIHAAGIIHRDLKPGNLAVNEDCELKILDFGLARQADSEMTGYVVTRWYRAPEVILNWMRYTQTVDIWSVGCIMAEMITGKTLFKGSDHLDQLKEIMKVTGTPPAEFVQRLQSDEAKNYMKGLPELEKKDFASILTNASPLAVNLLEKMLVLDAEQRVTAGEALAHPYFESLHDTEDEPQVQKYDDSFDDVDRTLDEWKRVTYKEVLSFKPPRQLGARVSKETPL

[15] = target: SRPK2 (Homo sapiens (Human), UniProt P78362)
[16] = target: MAP3K2 (Homo sapiens (Human), UniProt Q9Y2U5)
Sequence of MAP3K2 (Q9Y2U5 whole entry): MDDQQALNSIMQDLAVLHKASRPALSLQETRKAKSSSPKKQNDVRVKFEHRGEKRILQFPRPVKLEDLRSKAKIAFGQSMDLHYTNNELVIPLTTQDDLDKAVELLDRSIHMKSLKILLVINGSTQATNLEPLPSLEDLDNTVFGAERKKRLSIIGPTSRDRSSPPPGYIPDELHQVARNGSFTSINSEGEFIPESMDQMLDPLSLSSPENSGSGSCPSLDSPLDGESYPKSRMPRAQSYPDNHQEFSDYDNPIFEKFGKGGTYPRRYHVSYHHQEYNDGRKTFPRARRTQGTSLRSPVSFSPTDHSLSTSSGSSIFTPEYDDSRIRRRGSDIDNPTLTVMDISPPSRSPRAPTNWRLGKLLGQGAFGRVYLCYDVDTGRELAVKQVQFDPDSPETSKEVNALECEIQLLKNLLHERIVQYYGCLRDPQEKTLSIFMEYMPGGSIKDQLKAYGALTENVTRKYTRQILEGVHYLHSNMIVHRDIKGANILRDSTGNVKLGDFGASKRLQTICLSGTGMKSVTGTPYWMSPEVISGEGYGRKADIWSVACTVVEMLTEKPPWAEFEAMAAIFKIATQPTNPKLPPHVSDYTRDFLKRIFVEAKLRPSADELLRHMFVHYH

[17] = target: MRCKB (Homo sapiens (Human), UniProt Q9Y5S2)
[18] = target: RPS6KA4(Kin.Dom.1-N-terminal) (Homo sapiens (Human), UniProt O75676)
Sequence of RPS6KA4(Kin.Dom.1-N-terminal) (O75676 33-301): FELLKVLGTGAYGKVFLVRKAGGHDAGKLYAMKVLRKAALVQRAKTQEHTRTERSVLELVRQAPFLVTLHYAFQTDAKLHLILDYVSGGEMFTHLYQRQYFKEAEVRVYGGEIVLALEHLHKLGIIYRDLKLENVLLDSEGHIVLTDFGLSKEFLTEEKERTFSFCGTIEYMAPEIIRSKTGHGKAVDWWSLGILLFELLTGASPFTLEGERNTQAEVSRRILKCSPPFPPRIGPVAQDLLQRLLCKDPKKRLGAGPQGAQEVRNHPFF

[19] = target: PIP5K2B (Homo sapiens (Human), UniProt P78356)
Sequence of PIP5K2B (P78356 whole entry): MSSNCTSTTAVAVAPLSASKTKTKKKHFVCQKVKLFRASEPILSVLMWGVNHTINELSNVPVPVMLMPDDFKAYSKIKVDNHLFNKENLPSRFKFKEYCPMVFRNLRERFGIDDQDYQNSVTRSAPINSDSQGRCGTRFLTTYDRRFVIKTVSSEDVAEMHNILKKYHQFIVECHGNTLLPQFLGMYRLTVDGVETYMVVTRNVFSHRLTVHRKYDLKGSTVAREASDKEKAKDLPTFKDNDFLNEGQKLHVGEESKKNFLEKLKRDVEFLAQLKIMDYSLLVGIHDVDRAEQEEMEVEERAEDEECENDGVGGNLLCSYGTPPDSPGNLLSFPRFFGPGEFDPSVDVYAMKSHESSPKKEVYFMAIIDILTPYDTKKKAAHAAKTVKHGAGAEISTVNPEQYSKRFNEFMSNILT

[20] = target: FLT3(D835V) (Homo sapiens (Human), UniProt P36888, D835V)
[21] = target: RIPK5 (Homo sapiens (Human), UniProt Q6XUX3)
[22] = target: FRK (Homo sapiens (Human), UniProt P42685)
[23] = target: NIK (Homo sapiens (Human), UniProt Q99558)
[24] = target: WNK4 (Homo sapiens (Human), UniProt Q96J92)
[25] = target: CAMK2B (Homo sapiens (Human), UniProt Q13554)
Sequence of CAMK2B (Q13554 whole entry): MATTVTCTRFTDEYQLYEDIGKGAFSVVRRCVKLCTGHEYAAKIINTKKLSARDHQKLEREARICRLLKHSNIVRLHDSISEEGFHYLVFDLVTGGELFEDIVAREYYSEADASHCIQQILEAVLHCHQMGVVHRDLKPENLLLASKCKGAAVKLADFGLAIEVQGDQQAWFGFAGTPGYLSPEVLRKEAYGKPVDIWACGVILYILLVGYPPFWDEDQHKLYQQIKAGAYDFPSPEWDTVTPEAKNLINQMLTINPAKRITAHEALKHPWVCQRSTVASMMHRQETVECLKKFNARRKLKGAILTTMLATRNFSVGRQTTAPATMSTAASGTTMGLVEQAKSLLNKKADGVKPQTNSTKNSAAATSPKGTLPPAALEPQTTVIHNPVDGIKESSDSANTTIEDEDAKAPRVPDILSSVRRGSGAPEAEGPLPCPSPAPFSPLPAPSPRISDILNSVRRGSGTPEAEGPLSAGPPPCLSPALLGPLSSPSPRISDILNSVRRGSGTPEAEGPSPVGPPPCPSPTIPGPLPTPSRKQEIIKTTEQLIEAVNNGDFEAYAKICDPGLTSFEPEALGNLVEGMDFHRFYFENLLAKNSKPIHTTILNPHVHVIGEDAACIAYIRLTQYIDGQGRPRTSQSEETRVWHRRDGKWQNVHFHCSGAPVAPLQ

[26] = target: EPHA7 (Homo sapiens (Human), UniProt Q15375)
[27] = target: PKNB(M.tuberculosis) (Mycobacterium tuberculosis (strain ATCC 25618 / H37Rv), UniProt P9WI81)
[28] = target: GSK3A (Homo sapiens (Human), UniProt P49840)

Sequence of BRAF(V600E) (P15056 whole entry V600E): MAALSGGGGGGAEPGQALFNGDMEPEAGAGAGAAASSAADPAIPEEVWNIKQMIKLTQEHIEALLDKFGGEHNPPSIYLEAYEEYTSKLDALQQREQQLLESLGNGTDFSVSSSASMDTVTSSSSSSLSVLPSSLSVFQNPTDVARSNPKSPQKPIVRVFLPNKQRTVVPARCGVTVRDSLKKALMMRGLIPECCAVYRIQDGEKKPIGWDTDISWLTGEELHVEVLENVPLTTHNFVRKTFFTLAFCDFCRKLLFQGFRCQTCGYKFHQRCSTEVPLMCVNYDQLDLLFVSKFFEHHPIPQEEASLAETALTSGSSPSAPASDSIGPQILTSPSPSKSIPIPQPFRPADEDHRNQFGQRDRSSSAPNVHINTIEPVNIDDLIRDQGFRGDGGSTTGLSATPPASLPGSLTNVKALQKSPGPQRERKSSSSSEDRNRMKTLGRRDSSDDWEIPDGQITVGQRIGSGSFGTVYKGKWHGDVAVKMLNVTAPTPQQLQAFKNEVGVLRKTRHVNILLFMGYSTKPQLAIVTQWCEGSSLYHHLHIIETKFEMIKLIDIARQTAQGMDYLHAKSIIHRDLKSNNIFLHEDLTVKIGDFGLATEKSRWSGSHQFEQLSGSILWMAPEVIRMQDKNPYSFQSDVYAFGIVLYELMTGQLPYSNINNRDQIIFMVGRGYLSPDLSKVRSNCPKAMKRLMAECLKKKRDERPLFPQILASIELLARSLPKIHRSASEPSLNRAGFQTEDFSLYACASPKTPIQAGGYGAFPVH
Sequence of DDR2 (Q16832 22-855): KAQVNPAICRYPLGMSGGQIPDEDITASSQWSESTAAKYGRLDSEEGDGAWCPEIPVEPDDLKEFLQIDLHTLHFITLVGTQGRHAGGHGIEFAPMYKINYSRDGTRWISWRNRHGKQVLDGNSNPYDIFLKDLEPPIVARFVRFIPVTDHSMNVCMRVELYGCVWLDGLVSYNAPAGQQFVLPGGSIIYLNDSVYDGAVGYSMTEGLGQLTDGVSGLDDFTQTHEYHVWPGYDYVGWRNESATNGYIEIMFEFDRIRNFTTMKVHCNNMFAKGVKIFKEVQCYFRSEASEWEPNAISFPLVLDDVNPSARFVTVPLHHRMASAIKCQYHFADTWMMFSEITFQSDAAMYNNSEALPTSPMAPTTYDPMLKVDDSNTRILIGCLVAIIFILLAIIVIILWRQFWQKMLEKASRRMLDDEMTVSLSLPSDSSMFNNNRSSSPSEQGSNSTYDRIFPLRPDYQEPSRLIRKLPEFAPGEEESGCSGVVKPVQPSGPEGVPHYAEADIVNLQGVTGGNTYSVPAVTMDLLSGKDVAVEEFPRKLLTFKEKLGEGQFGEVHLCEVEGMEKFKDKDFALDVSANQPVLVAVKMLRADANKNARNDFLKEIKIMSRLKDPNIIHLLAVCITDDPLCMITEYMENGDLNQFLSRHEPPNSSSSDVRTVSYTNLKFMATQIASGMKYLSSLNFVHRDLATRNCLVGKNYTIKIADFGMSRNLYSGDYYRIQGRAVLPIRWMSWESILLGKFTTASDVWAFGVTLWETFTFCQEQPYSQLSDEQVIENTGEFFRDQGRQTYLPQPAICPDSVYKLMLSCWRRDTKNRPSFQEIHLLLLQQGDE

CN(C[C@@H](O)Cc1ccccc1)C(=O)c1cncc(C#Cc2cnn(C(F)F)c2)c1 [Example 2, (S)-5-((1-(difluoromethyl)-1H-pyrazol-4-yl)ethynyl)-N-(2-hydroxy-3-phenylpropyl)-N-methylnicotinamide]
remaining activity at 0.1 µM ([1]; IGFIR): 100%
remaining activity at 0.1 µM ([2]; DDR2): 100%
remaining activity at 0.1 µM ([3]; BRAF(V600E)): 97%
remaining activity at 0.1 µM ([4]; BMPR1A): 86%
remaining activity at 0.1 µM ([5]; JNK1): 92%
remaining activity at 0.1 µM ([6]; PIK3CG): 100%
remaining activity at 0.1 µM ([7]; CSNK2A2): 100%
remaining activity at 0.1 µM ([8]; DAPK1): 100%
remaining activity at 0.1 µM ([9]; ABL1(Q252H)-phosphorylated): 99%
remaining activity at 0.1 µM ([10]; FLT3(R834Q)): 100%
remaining activity at 0.1 µM ([11]; MY03A): 99%
remaining activity at 0.1 µM ([12]; STK33): 88%
remaining activity at 0.1 µM ([13]; JAK1(JH1domain-catalytic)): 100%
remaining activity at 0.1 µM ([14]; p38-gamma): 100%
remaining activity at 0.1 µM ([15]; SRPK2): 93%
remaining activity at 0.1 µM ([16]; MAP3K2): 99%
remaining activity at 0.1 µM ([17]; MRCKB): 95%
remaining activity at 0.1 µM ([18]; RPS6KA4(Kin.Dom.1-N-terminal)): 97%
remaining activity at 0.1 µM ([19]; PIP5K2B): 100%
remaining activity at 0.1 µM ([20]; FLT3(D835V)): 100%
remaining activity at 0.1 µM ([21]; RIPK5): 100%
remaining activity at 0.1 µM ([22]; FRK): 100%
remaining activity at 0.1 µM ([23]; NIK): 84%
remaining activity at 0.1 µM ([24]; WNK4): 84%
remaining activity at 0.1 µM ([25]; CAMK2B): 100%
remaining activity at 0.1 µM ([26]; EPHA7): 97%
remaining activity at 0.1 µM [27]: 100%
remaining activity at 0.1 µM ([28]; GSK3A): 100%

CN(C[C@H](Cc1ccccc1)OP(=O)(O)O)C(=O)c1cncc(C#Cc2cnn(C(F)F)c2)c1 [Example 19, (S)-1-(5-((1-(difluoromethyl)-1H-pyrazol-4-yl)ethynyl)-N-methylnicotinamido)-3-phenylpropan-2-yl dihydrogen phosphate]
remaining activity at 0.1 µM [1]: 98%
remaining activity at 0.1 µM [2]: 100%
remaining activity at 0.1 µM [3]: 97%
remaining activity at 0.1 µM [4]: 94%
remaining activity at 0.1 µM [5]: 87%
remaining activity at 0.1 µM [6]: 100%
remaining activity at 0.1 µM [7]: 100%
remaining activity at 0.1 µM [8]: 100%
remaining activity at 0.1 µM [9]: 99%
remaining activity at 0.1 µM [10]: 100%
remaining activity at 0.1 µM [11]: 93%
remaining activity at 0.1 µM [12]: 100%
remaining activity at 0.1 µM [13]: 100%
remaining activity at 0.1 µM [14]: 88%
remaining activity at 0.1 µM [15]: 100%
remaining activity at 0.1 µM [16]: 95%
remaining activity at 0.1 µM [17]: 100%
remaining activity at 0.1 µM [18]: 100%
remaining activity at 0.1 µM [19]: 95%
remaining activity at 0.1 µM [20]: 100%
remaining activity at 0.1 µM [21]: 96%
remaining activity at 0.1 µM [22]: 100%
remaining activity at 0.1 µM [23]: 88%
remaining activity at 0.1 µM [24]: 81%
remaining activity at 0.1 µM [25]: 92%
remaining activity at 0.1 µM [26]: 96%
remaining activity at 0.1 µM [27]: 100%
remaining activity at 0.1 µM [28]: 100%

Source: patent US11767310B2, “Nicotinamide RIPK1 inhibitors” (AbbVie Inc., priority 2021, dated 2023)
